Assay results from the CheMixHub ionic liquid set.

Assay: xn = mol fraction of the nth substance listed

CCOC(=O)OCC + CCCC[N+]1(C)CCCC1.O=S(=O)([N-]S(=O)(=O)C(F)(F)F)C(F)(F)F
Conditions	viscosity [mPa·s]
323.15 K, 100 kPa, x2 = 0	0.54

CC#N + CCCC[N+]1(C)CCCC1.O=S(=O)([O-])C(F)(F)F
101 kPa, x1 = 1
Conditions	viscosity [mPa·s]
288.15 K	0.371
293.15 K	0.355
298.15 K	0.337

CN(C)C=O + CCCC[P+](C)(CCCC)CCCC.COS(=O)(=O)[O-]
100 kPa, x2 = 0
Conditions	viscosity [mPa·s]
308.15 K	0.717
323.15 K	0.63

CC#N + CCCC[P+](CC)(CCCC)CCCC.F[B-](F)(F)F
100 kPa, x2 = 0
Conditions	viscosity [mPa·s]
293.15 K	0.354
298.15 K	0.338
303.15 K	0.324
308.15 K	0.31
313.15 K	0.298
318.15 K	0.286

CC#N + CCCC[P+](CCCC)(CCCC)CCCC.F[B-](F)(F)F
100 kPa, x2 = 0
Conditions	viscosity [mPa·s]
293.15 K	0.354
298.15 K	0.338
303.15 K	0.324
308.15 K	0.31
313.15 K	0.298
318.15 K	0.286

CCCCCC(=O)O + CCCC[P+](CCCC)(CCCC)CCCC.[Br-]
Conditions	viscosity [mPa·s]
298 K, 100 kPa, x2 = 0.5	290

CCCC[N+]1(C)CCCC1.F[P-](F)(F)(F)(F)F + CCCC[n+]1cccc(C)c1.F[P-](F)(F)(F)(F)F
101.3 kPa
Conditions	viscosity [mPa·s]
308.15 K, x2 = 0.4	535
313.15 K, x2 = 0.4	390
318.15 K, x2 = 0.4	290
318.15 K, x2 = 0.5	262
328.15 K, x2 = 0.4	170
328.15 K, x2 = 0.7	123
328.15 K, x2 = 0.9	102
333.15 K, x2 = 0.6	108
338.15 K, x2 = 0.5	96
343.15 K, x2 = 0.2	110
343.15 K, x2 = 0.4	86
343.15 K, x2 = 0.6	70
348.15 K, x2 = 0.6	57
353.15 K, x2 = 0.4	58
358.15 K, x2 = 0.2	61
358.15 K, x2 = 0.4	48
363.15 K, x2 = 0.5	37
363.15 K, x2 = 0.6	34

CCCC[n+]1ccccc1.O=S(=O)([N-]S(=O)(=O)C(F)(F)F)C(F)(F)F + CCCC[n+]1ccccc1.F[B-](F)(F)F
101 kPa
Conditions	viscosity [mPa·s]
303.15 K, x1 = 0.2162	91.2
303.15 K, x1 = 0.7643	58.2
313.15 K, x1 = 0.4327	48.4
313.15 K, x1 = 0.5429	46.2
313.15 K, x1 = 0.6523	42.5
313.15 K, x1 = 0.8822	36.3
323.15 K, x1 = 1	24.2
333.15 K, x1 = 0.6523	21.8
343.15 K, x1 = 0.1119	21.9
343.15 K, x1 = 0.2162	19.9
343.15 K, x1 = 0.8822	14.5
353.15 K, x1 = 0.1119	16.5
353.15 K, x1 = 0.4327	13.7
353.15 K, x1 = 0.5429	13.2
353.15 K, x1 = 1	10.9

CCCC[n+]1ccccc1.[Cl-] + CCCC[n+]1ccccc1.[Br-]
101 kPa
Conditions	viscosity [mPa·s]
398.1 K, x1 = 0.084	33
403.1 K, x1 = 0.084	27.4
408.1 K, x1 = 0.389	23.9
418.1 K, x1 = 0.169	16.9
418.1 K, x1 = 0.389	17.4
418.1 K, x1 = 0.689	18.6
418.1 K, x1 = 0.892	19.4
423.1 K, x1 = 0.084	14.37
423.1 K, x1 = 0.892	16.89
428.1 K, x1 = 0.785	14.42
433.1 K, x1 = 0.292	11.45
433.1 K, x1 = 0.892	13.16
438.1 K, x1 = 0.169	10.08
438.1 K, x1 = 0.469	10.85
438.1 K, x1 = 0.892	11.77
